Some results are limits rather than exact numbers.

Test [1] addresses T1, Adrenergic α1D (Homo sapiens, UniProt P25100).
T1 construct: expressed in transfected cells; host or cells: CHO-K1 mAeq
Description: Aequorin assay, Adrenergic α1D. The note with it: antagonism, CHO-K1 mAeq, read-out: Activity (Antagonism: IC50), Adrenergic a1D. It is filed as cell-based. The procedure: (§1) Receptor […] activity assays were performed using 8′OH-2-CF3-dihydroergotamine (8′OH-2-CF3-DHE). Table 1 summarizes the cell lines (CHO-K1/HEK293 transfected with relevant human receptor) and the assays performed to detect any agonist or antagonist activity.
(§2) Aequorin assays were conducted to monitor activity for 8′OH-2CF3-dihydroergotamine (8′OH-2CF3-DHE) against the receptors indicated in Table 1 above (except for mGlu3 and mGlu5). CHO-K1 cells coexpressing mitochondrial apoaequorin and the recombinant human receptor of interest were grown to mid-log phase in culture media without antibiotics and then detached with PBS-EDTA, centrifuged and resuspended in assay buffer (DMEM/HAM's F12 with HEPES, without phenol red+0.1% BSA, protease free) at a concentration of 1×10^6 cell/mL. […]
(§3) 50 μL of the cell suspension was mixed with 50 μL of test or reference agonist in a 96-well plate. The resulting emission of light was recorded using Hamamatsu Functional Drug Screening System 6000 (FDSS 6000) luminometer. […]
(§4) To standardize the emission of recorded light (and determine of the “100% signal”) across plates and across different experiments, some wells contained 100 μM digitonin or a saturating concentration of ATP (20 μM).

Test [2] deals with T2, Dopamine D2L (Homo sapiens, UniProt P14416).
T2 construct: expressed in transfected cells; host or cells: CHO-K1 (membrane extracts)
T2 sequence (P14416 whole entry): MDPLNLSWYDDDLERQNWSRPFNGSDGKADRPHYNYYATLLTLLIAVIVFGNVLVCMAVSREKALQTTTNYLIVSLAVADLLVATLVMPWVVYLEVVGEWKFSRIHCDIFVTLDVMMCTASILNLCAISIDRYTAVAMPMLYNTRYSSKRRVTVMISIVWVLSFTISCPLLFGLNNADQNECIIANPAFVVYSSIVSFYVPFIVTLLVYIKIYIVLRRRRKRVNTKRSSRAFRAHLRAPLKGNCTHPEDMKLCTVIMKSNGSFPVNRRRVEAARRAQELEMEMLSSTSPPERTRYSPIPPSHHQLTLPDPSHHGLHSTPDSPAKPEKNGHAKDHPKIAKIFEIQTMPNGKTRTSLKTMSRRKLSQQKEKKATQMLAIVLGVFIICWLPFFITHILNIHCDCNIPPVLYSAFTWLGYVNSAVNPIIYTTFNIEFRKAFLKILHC
The test can be described thus: GTPγ[35S] assay, Dopamine D2L. The format is biochemical. The settings on record: agonism, CHO-K1 membranes. The procedure: as §1
(§5) GTPγS studies were conducted to monitor agonist activity for 8′OH-2CF3-dihydroergotamine (8′OH-2CF3-DHE) against the receptors indicated in Table 1 above. Reagents used were the following: Assay buffer (20 mM HEPES, pH 7.4; 100 mM NaCl; 10 μg/mL saponin; 30 mM MgCl2); Membranes (recombinant human receptor membrane extracts were thawed on ice and diluted in assay buffer to give 1000 μg/mL ([…]) and kept on ice); GDP (diluted in assay buffer to give 30 μM solution (3 μM final concentration); beads (PVT-WGA (Amersham, RPNQ001), diluted in assay buffer at 25 mg/mL (0.25 mg/10 μL)); GTPγ^35S (Perkin Elmer, NEG030X), diluted in assay buffer to give 0.1 nM (final concentration); and ligand (agonist/antagonist diluted in assay buffer).
(§6) Membranes were mixed with GDP (1:1) and incubated for at least 15 minutes on ice. In parallel GTPγ^35S was mixed with the beads (1:1) just before starting the reaction. […] The plates were then centrifuged for 10 minutes at 2000 rpm and incubated at room temperature for 1 hour and counted for 1 min/well with a Perkin Elmer TopCount reader.

The subject of test [3] is NMDA (NR1/NR2A/NR2B/NR2C/NR2D). Description: NMDA receptor channel Fluo-8 calcium FLIPR assay. It is filed as cell-based, human. The settings on record: HEK293, Fluo-8 calcium FLIPR, agonist and antagonist assessment. The procedure: Studies for NMDA receptors, NR1, NR2A, NR2B, NR2C, NR2D receptor, were conducted to monitor receptor activity for 8′OH-2CF3-dihydroergotamine (8′OH-2CF3-DHE) using the Fluo-8 calcium kit and a Fluorescence Imaging Plate Reader (FLIPR^TETRA™) instrument. The following channels were evaluated: Cloned NMDA receptor (NR1/NR2A) channel (encoded by the GRIN1 and GRIN2A genes, coexpressed in HEK293 cells; Cloned NMDA receptor (NR1/NR2B) channel (encoded by the GRIN1 and GRIN2B genes, coexpressed in HEK293 cells; Cloned NMDA receptor (NR1/NR2C) channel (encoded by the GRIN1 and GRIN2C genes, coexpressed in HEK293 cells; and Cloned NMDA receptor (NR1/NR2D) channel (encoded by the GRIN1 and GRIN2D genes, transiently coexpressed in HEK293 cells.
For the agonist assessment, the effect of 8′OH-2CF3-DHE was evaluated in the absence of the positive control agonist. The signal, elicited in the presence of the agonist (100 μM Glutamic acid+20 μM Glycine), was set to 100% activation and the signal in the presence of the vehicle control (Mg^2+-free HB-PS) was set to 0% activation.
For the antagonist assessment, NR1/NR2A and NR1/NR2B was activated with the positive control agonist (100 μM Glutamic acid+20 μM Glycine). The ability of 8′OH-2CF3-DHE to inhibit the signal was examined after agonist stimulation and compared to the positive control antagonist (MK-801). […]

The target in test [4] is T3, CCK2 (Homo sapiens, UniProt P32239).
T3 construct: expressed in transfected cells; host or cells: CHO-AEQ
T3 sequence (P32239 whole entry): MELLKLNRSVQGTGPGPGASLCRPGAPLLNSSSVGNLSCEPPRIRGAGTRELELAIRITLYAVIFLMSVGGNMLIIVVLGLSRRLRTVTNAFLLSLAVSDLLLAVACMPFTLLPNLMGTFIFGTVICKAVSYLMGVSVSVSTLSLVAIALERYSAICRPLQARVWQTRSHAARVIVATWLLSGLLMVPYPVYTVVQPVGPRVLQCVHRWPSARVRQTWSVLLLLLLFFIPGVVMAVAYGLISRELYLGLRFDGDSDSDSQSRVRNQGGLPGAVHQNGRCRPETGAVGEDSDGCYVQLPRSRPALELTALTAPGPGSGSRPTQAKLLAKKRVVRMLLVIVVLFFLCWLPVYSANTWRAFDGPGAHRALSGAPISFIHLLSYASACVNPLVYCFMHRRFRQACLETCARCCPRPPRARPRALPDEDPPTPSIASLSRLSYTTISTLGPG
Description: Aequorin assay, Cholecystokinin CCK2. It is filed as cell-based. The settings on record: antagonism, CHO-AEQ. As to the method: as §1, §2, §3, §4

Test [5] has as its system Opioid (OP1/OP2/OP3). The test can be described thus: GTPγ[35S] assay, Opioid receptors. It is filed as biochemical, human. The note with it: CHO-K1 membranes. As to the method:
as §1, §5, §6

T1 sequence (P25100 whole entry): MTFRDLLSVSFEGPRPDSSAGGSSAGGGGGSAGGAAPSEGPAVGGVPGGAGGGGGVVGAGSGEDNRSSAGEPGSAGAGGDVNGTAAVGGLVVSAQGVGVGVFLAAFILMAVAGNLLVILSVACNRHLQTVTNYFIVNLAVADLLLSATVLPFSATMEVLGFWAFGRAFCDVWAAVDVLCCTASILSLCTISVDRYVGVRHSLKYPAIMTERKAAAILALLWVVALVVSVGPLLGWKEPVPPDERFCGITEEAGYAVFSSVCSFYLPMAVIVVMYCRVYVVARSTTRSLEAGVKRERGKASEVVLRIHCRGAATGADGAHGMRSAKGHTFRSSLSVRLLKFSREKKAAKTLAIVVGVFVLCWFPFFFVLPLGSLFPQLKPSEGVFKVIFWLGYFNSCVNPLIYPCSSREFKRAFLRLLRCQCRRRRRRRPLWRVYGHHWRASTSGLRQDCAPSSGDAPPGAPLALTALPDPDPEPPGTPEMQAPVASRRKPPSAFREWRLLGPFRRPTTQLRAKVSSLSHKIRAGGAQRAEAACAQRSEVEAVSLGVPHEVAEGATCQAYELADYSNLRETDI

For `CN1C[C@H](C(=O)N[C@]2(C)O[C@@]3(O)[C@@H]4CC[C@@H](O)N4C(=O)[C@H](Cc4ccccc4)N3C2=O)C[C@@H]2c3cccc4[nH]c(C(F)(F)F)c(c34)C[C@H]21` [8′OH-2-CF3-DHE, 8′-Hydroxy-2-CF3-dihydroergotamine], the IC50 (in general, the point on the concentration scale where inhibition reaches its midpoint) in test [1] is 0.00958 µM; in test [4], more than 10 µM. In addition, in test [2], it took 0.0173 µM to reach a half-maximal effect (EC50). Besides, in test [3], the “Activity (Agonism: EC50; Antagonism: IC50), NMDA (NR1/NR2A/NR2B/NR2C/NR2D)” value was “Inactive”. For the same compound, the “Activity (Agonism: EC50; Antagonism: IC50), Opioid (OP1/OP2/OP3)” value in test [5] is “Inactive”.

Values taken from patent US20150238487A1, “NOVEL ERGOLINE DERIVATIVES AND USES THEREOF” (MAP Pharmaceuticals, Inc., priority 2012, published 2015).
